Results from US20140045873A1, “NOVEL MICROBIOCIDES” (SYNGENTA PARTICIPATIONS AG, priority 2010, published 2014).
Like-named read-outs stand apart in the source and are kept apart here.

How the values were obtained:
[1] = system: Glomerella lagenarium (Colletotrichum lagenarium); test: Glomerella lagenarium (Colletotrichum lagenarium) / liquid culture (anthracnose); type: cell-based; conditions: Colletotrichum orbiculare; 200 ppm, liquid culture, PDB, 24° C., 3-4 days after application; read-out: control of Glomerella lagenarium (inhibition of growth, photometric)
[2] = system: Monographella nivalis (Microdochium nivale); test: Monographella nivalis (Microdochium nivale) / liquid culture (foot rot cereals); type: cell-based; conditions: PDB, 24° C., 4-5 days after application, read-out: control of Monographella nivalis (inhibition of growth, photometric)
[3] = system: Mycosphaerella arachidis (Cercospora arachidicola); test: Mycosphaerella arachidis (Cercospora arachidicola) / liquid culture (early leaf spot); type: cell-based; conditions: 200 ppm, liquid culture, PDB, 24° C., 4-5 days after application, read-out: control of Mycosphaerella arachidis (inhibition of growth, photometric)
Gaeumannomyces graminis = Gaeumannomyces graminis / liquid culture (take-all of cereals); type: cell-based; conditions: 200 ppm, liquid culture, PDB, 24° C., 4-5 days after application, read-out: control of Gaeumannomyces graminis (inhibition of growth, photometric)
[4] = system: Mycosphaerella graminicola (Septoria tritici); test: Mycosphaerella graminicola (Septoria tritici) / liquid culture (Septoria blotch); type: cell-based; conditions: Zymoseptoria tritici; 200 ppm, liquid culture, PDB, 24° C., 4-5 days after application; read-out: control of Mycosphaerella graminicola (inhibition of growth, photometric)
[5] = system: Botryotinia fuckeliana (Botrytis cinerea); test: Botryotinia fuckeliana (Botrytis cinerea) / liquid culture (gray mould); type: cell-based; conditions: Vogels broth, 24° C., 3-4 days after application, read-out: control of Botryotinia fuckeliana (inhibition of growth, photometric)
Source text: Botryotinia Fuckeliana (Botrytis cinerea)/Liquid Culture (Gray Mould): Conidia of the fungus from cryogenic storage were directly mixed into nutrient broth (Vogels broth). […].45

Pyrenophora teres = conditions: in Hordeum vulgare, foliar, read-out: control of Pyrenophora teres (disease control compared to untreated)
[6] = system: Thanatephorus cucumeris (Rhizoctonia solani); conditions: read-out: control of Thanatephorus cucumeris (inhibition of growth, photometric)
[7] = system: Phaeosphaeria nodorum (Septoria nodorum); conditions: Parastagonospora nodorum, in Triticum aestivum, foliar, read-out: control of Phaeosphaeria nodorum (percent disease control compared to untreated)
[8] = system: Puccinia recondita f. sp. tritici; conditions: in Triticum aestivum, foliar, read-out: control of Puccinia recondita f. sp. tritici (percent disease control compared to untreated)
[9] = system: Puccinia recondita f. sp. tritici; conditions: in Triticum aestivum, foliar, read-out: control of Puccinia recondita f. sp. tritici (percent disease control compared to untreated); remark: listed apart in the source
Pythium ultimum = Pythium ultimum / liquid culture (seedling damping off); type: cell-based; conditions: Globisporangium ultimum, potato dextrose broth, 24° C., 2-3 days after application, read-out: control of Pythium ultimum (inhibition of growth, photometric)

C/C(=N\OCCCc1cccc(-c2ccnc(C3CC3)n2)n1)c1cccc(C)n1 [P.07]
≥ 80%: inhibition at 200 ppm [1] | inhibition at 200 ppm [2] | inhibition at 200 ppm [3] | inhibition at 200 ppm (Gaeumannomyces graminis) | inhibition at 200 ppm [4] | inhibition at 200 ppm [5] | pest or weed control at 200 ppm (Pyrenophora teres) | inhibition at 200 ppm [6] | pest or weed control at 200 ppm [7]

C=CCOc1cc(C)nc(-c2cccc(CCCO/N=C(\C)c3cc(C)cc(C)n3)n2)c1 [P.30]
≥ 80%: inhibition at 200 ppm [1] | inhibition at 200 ppm [2] | inhibition at 200 ppm [3] | inhibition at 200 ppm (Gaeumannomyces graminis) | inhibition at 200 ppm [4] | pest or weed control at 200 ppm [8] | inhibition at 200 ppm [5] | pest or weed control at 200 ppm (Pyrenophora teres) | inhibition at 200 ppm [6] | pest or weed control at 200 ppm [7] | pest or weed control at 200 ppm [9]

CCCOc1cc(C)nc(-c2cccc(CCCO/N=C(\C)c3cc(C)cc(C)n3)n2)c1 [P.31]
≥ 80%: inhibition at 200 ppm [1] | inhibition at 200 ppm [2] | inhibition at 200 ppm [3] | inhibition at 200 ppm (Gaeumannomyces graminis) | inhibition at 200 ppm [4] | pest or weed control at 200 ppm [8] | inhibition at 200 ppm [5] | pest or weed control at 200 ppm (Pyrenophora teres) | inhibition at 200 ppm [6] | pest or weed control at 200 ppm [7] | pest or weed control at 200 ppm [9]

C/C(=N\OCCCc1cccc(-c2cc(C)cc(C)n2)n1)c1cccc(C)n1 [P.19]
≥ 80%: inhibition at 200 ppm [3] | inhibition at 200 ppm (Gaeumannomyces graminis) | inhibition at 200 ppm [4] | pest or weed control at 200 ppm [8] | pest or weed control at 200 ppm (Pyrenophora teres) | inhibition at 200 ppm (Pythium ultimum) | pest or weed control at 200 ppm [7] | pest or weed control at 200 ppm [9]

C/C(=N\OCCCc1cccc(-c2cc(OCc3ccccc3)cc(C)n2)n1)c1cccc(C)n1 [P.15]
≥ 80%: inhibition at 200 ppm [1] | inhibition at 200 ppm [2] | inhibition at 200 ppm [3] | inhibition at 200 ppm (Gaeumannomyces graminis) | inhibition at 200 ppm [4] | pest or weed control at 200 ppm [8] | inhibition at 200 ppm [5] | pest or weed control at 200 ppm (Pyrenophora teres) | inhibition at 200 ppm [6] | pest or weed control at 200 ppm [7] | pest or weed control at 200 ppm [9]

C/C(=N\OCCCc1cccc(-c2ccccn2)n1)c1cccc(C)n1 [P.01]
≥ 80%: inhibition at 200 ppm [1] | inhibition at 200 ppm [2] | inhibition at 200 ppm [3] | pest or weed control at 200 ppm [8] | inhibition at 200 ppm [5] | pest or weed control at 200 ppm (Pyrenophora teres) | inhibition at 200 ppm [6] | pest or weed control at 200 ppm [7] | pest or weed control at 200 ppm [9]

CCc1cc(SC)c(C)c(-c2cccc(CCCO/N=C(\C)c3cccc(C)n3)n2)n1 [P.40]
≥ 80%: inhibition at 200 ppm [1] | inhibition at 200 ppm [2] | inhibition at 200 ppm [3] | inhibition at 200 ppm (Gaeumannomyces graminis) | inhibition at 200 ppm [4] | pest or weed control at 200 ppm [8] | inhibition at 200 ppm [5] | pest or weed control at 200 ppm (Pyrenophora teres) | inhibition at 200 ppm [6] | pest or weed control at 200 ppm [7] | pest or weed control at 200 ppm [9]

C#CCOc1cc(C)nc(-c2cccc(CCCO/N=C(\C)c3cccc(C)n3)n2)c1 [P.24]
≥ 80%: inhibition at 200 ppm [2] | inhibition at 200 ppm [3] | inhibition at 200 ppm (Gaeumannomyces graminis) | inhibition at 200 ppm [4] | pest or weed control at 200 ppm [8] | inhibition at 200 ppm [5] | pest or weed control at 200 ppm (Pyrenophora teres) | inhibition at 200 ppm [6] | pest or weed control at 200 ppm [7] | pest or weed control at 200 ppm [9]

C/C(=N\OCCCc1cccc(-c2nc(C)cc(C)n2)n1)c1cccc(C)n1 [P.05]
≥ 80%: inhibition at 200 ppm [1] | inhibition at 200 ppm [3] | inhibition at 200 ppm (Gaeumannomyces graminis) | inhibition at 200 ppm [4] | pest or weed control at 200 ppm [8] | pest or weed control at 200 ppm (Pyrenophora teres) | inhibition at 200 ppm [6] | inhibition at 200 ppm (Pythium ultimum) | pest or weed control at 200 ppm [7] | pest or weed control at 200 ppm [9]

C/C(=N\OCCCc1ccnc(-c2cccc(C)n2)n1)c1cccc(C)n1 [P.45, E-1-(6-methyl-2-pyridyl)-N-[3-[2-(6-methyl-2-pyridyl)pyrimidin-4-yl]propoxy]ethanimine]
≥ 80%: inhibition at 200 ppm [1] | inhibition at 200 ppm [2] | inhibition at 200 ppm [3] | inhibition at 200 ppm [4] | pest or weed control at 200 ppm [8] | inhibition at 200 ppm [5] | pest or weed control at 200 ppm (Pyrenophora teres) | inhibition at 200 ppm [6] | inhibition at 200 ppm (Pythium ultimum) | pest or weed control at 200 ppm [7] | pest or weed control at 200 ppm [9]

CCCOc1cc(C)nc(-c2cccc(CCCO/N=C(\C)c3cccc(C)n3)n2)c1 [P.26]
≥ 80%: inhibition at 200 ppm [1] | inhibition at 200 ppm [2] | inhibition at 200 ppm [3] | inhibition at 200 ppm (Gaeumannomyces graminis) | inhibition at 200 ppm [4] | pest or weed control at 200 ppm [8] | inhibition at 200 ppm [5] | pest or weed control at 200 ppm (Pyrenophora teres) | inhibition at 200 ppm [6] | pest or weed control at 200 ppm [7] | pest or weed control at 200 ppm [9]

C/C(=N\OCCCc1cccc(-c2cc(Br)cc(C)n2)n1)c1cccc(C)n1 [P.18]
≥ 80%: inhibition at 200 ppm [1] | inhibition at 200 ppm [2] | inhibition at 200 ppm [3] | inhibition at 200 ppm (Gaeumannomyces graminis) | inhibition at 200 ppm [4] | pest or weed control at 200 ppm [8] | pest or weed control at 200 ppm (Pyrenophora teres) | inhibition at 200 ppm (Pythium ultimum) | pest or weed control at 200 ppm [7] | pest or weed control at 200 ppm [9]
